This note sets out measurements from patent US20250368683A1, “METHOD FOR TREATING OR PREVENTING BRONCHIAL ALLERGIC DISEASES WITH PEPTIDE COMPOSITION” (Greenyn Biotechnology Co., Ltd, priority 2024, published 2025).

Common to all, as to format: cell-based, mouse
One assay has as its system IL-4. The assay can be described thus: Cell test: IL-4 secretion by P815 cells stimulated with compound 48/80 (ELISA). To be noted: 20 minutes pre-incubation with polypeptide, then compound 48/80, total 6 hours, supernatant ELISA. Also on record: unit not given here. On the procedure:
(§1) In this example, the cell line used was the P815 mouse mastocytoma cell line, and the allergen was compound 48/80. To start with, each of the polypeptides represented by SEQ ID No. 1-10 was co-cultured with the P815 cells for 20 minutes, was then added with compound 48/80, and then continued co-culturing for a total of 6 hours. When the culturing process was completed, the supernatants were collected, and the amounts of IL-4 and IL-13 secretions were analyzed by enzyme-linked immunosorbent assay (ELISA), with the results shown in FIG. 1 and Table 2.

The next assay has as its system IL-13. The assay can be described thus: Cell test: IL-13 secretion by P815 cells stimulated with compound 48/80 (ELISA). Also on record: IL-13 inhibitory activity: unit not given here. To be noted: for IL-13 inhibitory activity: 20 minutes pre-incubation with polypeptide, then compound 48/80, total 6 hours, supernatant ELISA; for IL-13 inhibitory activity (in words): compound 48/80. On the procedure:
as §1
On the technique in general: In an ELISA, binding on a coated surface is turned into a signal by an enzyme label.

The subject of a further assay is Th2 pathway. Put plainly: Cell test: overall inhibitory activity on the Th2 pathway (IL-4 and IL-13, P815 cells). To be noted: all in all, from IL-4 and IL-13 results in P815 cells. On the procedure:
as §1
It can be known from the results in FIG. 1 and Table 2 that the polypeptides represented by SEQ ID No. 1-10 had IL-4 inhibitory activity; that the polypeptides represented by SEQ ID NO.

As for RLTDYFTID [SEQ ID No. 3], the IL-4 inhibitory activity in the assay on IL-4 is −8.9. For the same sequence, in the assay on IL-13, the IL-13 inhibitory activity worked out at 0.0.

Take IGVDEHYTPI [SEQ ID No. 10]: in the assay with IL-4, the IL-4 inhibitory activity is reported as −7.2. For the same sequence, the IL-13 inhibitory activity in the assay with IL-13 was 0.0.

As for LGVTNINISDP [SEQ ID No. 2], the IL-4 inhibitory activity in the assay with IL-4 is given as −16.0. The IL-13 inhibitory activity with IL-13 is 0.0.

Consider INFVTEEDKR [SEQ ID No. 1], for which, in the assay with IL-4, the IL-4 inhibitory activity was −25.2. Besides, in the assay on IL-13, the IL-13 inhibitory activity is on record as 0.0.

With LVGTDVATAQAP [SEQ ID No. 7], the IL-4 inhibitory activity with IL-4 was −23.9. In the assay with IL-13, the IL-13 inhibitory activity was 0.0.

In the case of GHCGCSSG [SEQ ID No. 8], the IL-4 inhibitory activity with IL-4 is reported as −38.5. For the same sequence, the IL-13 inhibitory activity in the assay on IL-13 amounted to 0.0. For the same sequence, in the assay with Th2 pathway, the “inhibitory activity on the Th2 pathway (in words)” value is “relatively good inhibitory activity”.

On to ALYPLLTTLTD [SEQ ID No. 5], for which the IL-4 inhibitory activity in the assay on IL-4 is given as −13.1. For the same sequence, in the assay with IL-13, the IL-13 inhibitory activity is on record as −71.4 and the “IL-13 inhibitory activity (in words)” value was “had IL-13 inhibitory activity”.

With SMNLSLVLQVV [SEQ ID No. 4], the IL-4 inhibitory activity with IL-4 is given as −32.9. Further, in the assay with IL-13, the IL-13 inhibitory activity was −21.4 and the “IL-13 inhibitory activity (in words)” value is reported as “had IL-13 inhibitory activity”. The “inhibitory activity on the Th2 pathway (in words)” value in the assay on Th2 pathway was “relatively good inhibitory activity”.

For the sequence VRYLEWSNIESIIA [SEQ ID No. 6], the IL-4 inhibitory activity in the assay with IL-4 is −22.2. Further, the IL-13 inhibitory activity in the assay on IL-13 is on record as −60.7. Further, the “inhibitory activity on the Th2 pathway (in words)” value with Th2 pathway is recorded as “relatively good inhibitory activity”.

Turning to NFIVTGLQDIM [SEQ ID No. 9], in the assay on IL-4, the IL-4 inhibitory activity is recorded as −11.5. Also, in the assay with IL-13, the IL-13 inhibitory activity is reported as −57.1 and the “IL-13 inhibitory activity (in words)” value is reported as “had IL-13 inhibitory activity”. Further, the “inhibitory activity on the Th2 pathway (in words)” value in the assay on Th2 pathway is on record as “relatively good inhibitory activity”.
